Measurements reported in article PMC10348910, “Epigenetic reprogramming of cell cycle genes by ACK1 promotes breast cancer resistance to CDK4/6 inhibitor” (Oncogene, 2023).

Tests used:
ACK1 = ACK1 (Homo sapiens, UniProt Q07912); test: biochemical; details: 1 uM ATP; read-out: Compound IC50 (M) ACK1
[1] = system: Palbociclib-resistant MDA-MB-231; test: proliferation assay, trypan blue exclusion; assay type: cell-based; details: palbociclib-resistant MDA-MB-231, 96 h
Method: (§1) A–F Breast cancer cells were treated with either vehicle or (R)-9b for 48 h; cells were harvested and processed for cell cycle analysis using propidium iodide staining, followed by flow cytometry. G BT549 and H MDA-MB-468 cells were treated with varying drug concentrations of palbociclib or (R)-9b for 96 h and the cell viability assessed using trypan blue exclusion method. I BT549, and J MDA-MB-468 cells were treated with 1 µM palbociclib or (R)-9b for 48 h and subjected to cell cycle analysis using propidium iodide staining, followed by flow-cytometry. Palbociclib-resistant MDA-MB-231 (K) and HCC-1395 (L) were generated and treated with varying drug concentrations of palbociclib or (R)-9b for 96 h and the cell viability assessed using trypan blue exclusion method.
(§2) The mid-G1 phase is governed by CDK4 and CDK6, two serine/threonine kinases the catalytic activity of which is modulated by D-type cyclins (D1, D2, and D3). […]
(§3) For proliferation assay, 5 × 10^4 cells were plated in 6-well plate and treated with either vehicle (DMSO) or varying concentrations of (R)-9b or palbociclib in complete media for 96 h and number of viable cells were counted by trypan blue exclusion assay. […] The cells were acquired using the BD FACSCalibur machine (BD Biosciences) and data was analyzed using FlowJo software. […] The data were analyzed using FlowJo software.

[2] = system: Palbociclib-resistant HCC-1395; test: proliferation assay, trypan blue exclusion; assay type: cell-based; details: palbociclib-resistant HCC-1395, 96 h
Method: as §1, §2, §3

[3] = system: MDA-MB-231 lung metastasis; test: tail vein assay of cancer metastasis; assay type: in vivo, female SCID mice; details: 24 mg/Kg, 5 days a week
Method: To validate the functional significance in vivo, we performed the tail vein assay of cancer metastasis. Briefly, MDA-MB-231 cells were injected in tail veins of female SCID mice and were treated with vehicle or 24 mg/Kg (R)-9b either subcutaneously or orally, for 5 days a week. The mice were euthanized and the lungs were harvested, preserved in 10% neutral buffered formalin, followed by H&E staining. Sections were examined by pathologist (C.W), and scored for metastatic nodules/deposits in 12 × 10 mm area of lung tissue.
MDA-MB-231 cells (2 × 10^5 in PBS), were injected intravenously in the lateral tail vein of female SCID mice. After 10 days, the mice were randomly chosen for treatment with either vehicle, (R)-9b (36 mg/Kg body weight) orally or subcutaneously (s.c.) (24 mg/Kg body weight) for 5 days a week, for 2 weeks. The mice were sacrificed and the lungs were harvested and fixed in 10% neutral buffered formalin. The number of metastatic foci per lung were scored in a blinded fashion by a pathologist (C.W.).

[4] = system: MCF7, SKBR3, HCC-1395 and MDA-MB-453; test: apoptosis assay, Annexin V-FITC/PI flow cytometry; assay type: cell-based; details: 0.25, 0.5, 1 µM
Method: For proliferation assay, 5 × 10^4 cells were plated in 6-well plate and treated with either vehicle (DMSO) or varying concentrations of (R)-9b or palbociclib in complete media for 96 h and number of viable cells were counted by trypan blue exclusion assay. Breast cancer cell lines were treated with vehicle or varying concentrations of (R)-9b for 72 h. The cells were harvested, washed 2 times with PBS and incubated with 3 ul of Annexin V-FITC antibody according to the manufacturers protocol (BD Biosciences). Five µl Propidium iodide was used to stain necrotic cells. The cells were acquired using the BD FACSCalibur machine (BD Biosciences) and data was analyzed using FlowJo software. Cell cycle analysis was performed as mentioned earlier. Briefly, vehicle or (R)-9b (48 h) treated cells were harvested by trypsinization, washed 2 times with PBS, and fixed using chilled 70% Ethanol for 1 h, followed by 2 washes with PBS. […] The data were analyzed using FlowJo software. […]
(A) MCF7, SKBR3, HCC-1395 and MDA-MB-453 cells were treated with 0.25µM, 0.5µM and 1 µM (R)-9b for 96h. […] Quantification of the live, early apoptotic, late apoptotic and necrotic cells is represented using stacked columns. […]

Sequence of ACK1 (Q07912 whole entry): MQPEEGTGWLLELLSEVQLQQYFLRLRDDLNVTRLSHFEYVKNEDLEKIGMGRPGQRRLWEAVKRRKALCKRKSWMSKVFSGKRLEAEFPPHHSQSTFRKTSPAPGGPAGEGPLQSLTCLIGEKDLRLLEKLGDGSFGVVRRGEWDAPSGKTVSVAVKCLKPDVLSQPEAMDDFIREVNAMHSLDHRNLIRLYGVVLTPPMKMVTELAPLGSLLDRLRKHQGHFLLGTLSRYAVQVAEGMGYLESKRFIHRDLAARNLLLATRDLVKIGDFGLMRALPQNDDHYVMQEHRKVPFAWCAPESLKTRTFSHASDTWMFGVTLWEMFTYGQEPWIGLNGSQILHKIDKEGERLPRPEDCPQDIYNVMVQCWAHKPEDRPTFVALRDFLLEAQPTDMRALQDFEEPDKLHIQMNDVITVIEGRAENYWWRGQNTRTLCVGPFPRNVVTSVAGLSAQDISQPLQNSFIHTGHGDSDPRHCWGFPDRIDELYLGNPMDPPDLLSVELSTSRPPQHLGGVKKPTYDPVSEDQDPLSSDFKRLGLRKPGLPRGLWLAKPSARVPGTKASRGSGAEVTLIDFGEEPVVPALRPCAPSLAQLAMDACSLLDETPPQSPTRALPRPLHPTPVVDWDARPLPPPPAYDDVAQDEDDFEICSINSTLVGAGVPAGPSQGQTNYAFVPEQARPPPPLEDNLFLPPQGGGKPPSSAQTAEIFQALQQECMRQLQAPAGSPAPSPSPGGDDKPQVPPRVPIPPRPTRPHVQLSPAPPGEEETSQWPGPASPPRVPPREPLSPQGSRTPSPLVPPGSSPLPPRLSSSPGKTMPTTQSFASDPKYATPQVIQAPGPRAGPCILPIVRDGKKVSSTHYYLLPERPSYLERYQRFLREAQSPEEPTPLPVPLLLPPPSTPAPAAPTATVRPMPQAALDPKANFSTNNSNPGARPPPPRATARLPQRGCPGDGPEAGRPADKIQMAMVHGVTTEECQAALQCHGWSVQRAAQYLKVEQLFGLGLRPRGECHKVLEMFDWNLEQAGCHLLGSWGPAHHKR

Which IC50 (ACK1) does the source give for `CN1CCN(c2ccc(Nc3ncc(Cl)c(NC[C@H]4CCCO4)n3)cc2)CC1` [(R)-9b] here?
Its IC50 is 1.25e-08 M.

And the “sensitivity (cell proliferation)” value [1]?
Its value is “loss of proliferation”.

And the “sensitivity (cell proliferation)” value [2]?
Its value is “loss of proliferation”.

What about the lung metastatic deposits ([3]; (R)-9b oral) of the same compound?
The lung metastatic deposits was 2 deposits.

What about the lung metastatic deposits ([3]; (R)-9b subcutaneous) of the same compound?
Its lung metastatic deposits is “no deposits”.

And the “number of cells undergoing apoptosis” value [4]?
Its value is “marked increase”.
